The text below walks through data of patent US20230192598A1, “NOVEL MODIFIED TETRACYCLINES FOR TREATMENT OF ALCOHOL USE DISORDER, PAIN AND OTHER DISORDERS INVOLVING POTENTIAL INFLAMMATORY PROCESSES” (Texas Tech University System, priority 2020, published 2023).

What is called LogD is the decadic logarithm of the distribution of all forms, ionised or not, between an organic phase and buffer at a given pH. The term LogP denotes the decadic logarithm of the partition coefficient of the neutral form, usually between octanol and water.

The test system of one data set is C57BL/6J mice. Kind of data set: Drinking in the Dark (DID) model of AUD, ethanol consumption. It is filed as in vivo. The conditions noted are these: for reduction of ethanol consumption: by gavage, compared with i.p.; for % DID: Table 3, ↓ = decrease of alcohol consumption. From the text:
FIGS. 5A to 5C show, 5A) CMMs reduced acute ethanol consumption in the Drinking in the Dark model of AUD. MINO, DeDiAc, and TRI reduced ethanol consumption by over 50% by intraperitoneal injection (Left). […] 5B) Dose response curve for DeDIAc in female mice by gavage. 5C) Dose response curve for DeDIAc in male mice by gavage. MINO=minocycline, BeMAc=Butyl ether monoacetate minocycline, DeDiAc=De amino di acetyl minocycline, TRI=Tri acetyl minocycline. *p<0.05 compared to controls.
(§1) Purity and molecular formula verification of the CMM analogs were done using High Performance Liquid Chromatography (HPLC) Nuclear Magnetic Resonance spectroscopy (NMR) and Liquid Chromatography-Mass Spectrometry (LC-MS) after initial identification via Thin-layer Chromatography (TLC). Zone of inhibition (ZOI) and colony forming unit (CFU) assays were used to assess the antibacterial efficacy of our CMM analogs in E. coli cell culture. Drinking-in-the-Dark (DID) and Two-Bottle Choice (2BC) procedures were utilized in both female and male C57BL/6J mice to evaluate ethanol and water consumption. […] Butyl ether minocycline may be used for an AUD treatment.

In another data set the test system is E. coli cell culture. Kind of data set: Antibacterial efficacy of CMM ether analogs (ZOI and CFU assays, Example 2). Format: cell-based. The conditions noted are these: for Anti-microbial action: Table 3.
Excerpt: as §1

For another data set, the system named is AUD traits. The conditions noted are these: seven tetracyclines tested (Syapin et al. 2016); cited from earlier work.
For data set [1] the following is noted: cited from earlier work.
For data set [2], the system named is E. coli. Kind of data set: Zone of inhibition assay. Format: cell-based. The conditions noted are these: 24 hour cell culture.
Excerpt: (§2) MINO=minocycline, BeMAc=Butyl ether monoacetate minocycline, DeDiAc=De amino di acetyl minocycline, TRI=Tri acetyl minocycline.
as §1

In data set [3] the test system is E. coli. Kind of data set: Colony forming unit assay, antibacterial. It is filed as cell-based. The note with it: 24 hour cell culture.
Excerpt: as §2, §1

Where [4] appears, read: butyl ether minocycline 100 mg/kg, i.p.

“Also recorded” adds a separate entry of the source.

With Tri acetyl minocycline, the “reduction of ethanol consumption” value with C57BL/6J mice (Drinking in the Dark) is “reduced ethanol consumption to a lesser degree”.
Turning to “Butyl ether monoacetate minocycline [BeMAc]”, in the data set with C57BL/6J mice (Drinking in the Dark), the “reduction of ethanol consumption” value is “reduced ethanol consumption to a lesser degree”.
`CN(C)c1ccc(O)c2c1CC1CC3C(N(C)C)C(O)=C(C(N)=O)C(=O)C3(O)C(O)=C1C2=O.Cl` (stereo not drawn) [Minocycline HCl, 4,7-Bis-dimethylamino-3,10,12,12a-tetrahydroxy-1,11-dioxo-1,4,4a,5,5a,6,11,12a-octahydro-naphthacene-2-carboxylic acid amide hydrochloride, reference compound]: the “% DID” value in the data set with C57BL/6J mice (setting [4]) came out at 75%. Moreover, in the data set with E. coli cell culture, the Anti-microbial action was greater than 0.125 mg/mL.
For the molecule `CN(C)c1cc(NC(=O)CNC(C)(C)C)c(O)c2c1C[C@H]1C[C@H]3[C@H](N(C)C)C(O)=C(C(N)=O)C(=O)[C@@]3(O)C(O)=C1C2=O` [Tigecycline], in the data set with AUD traits, the “effectiveness against AUD traits” value is reported as “effective”. In data set [1], the pH-dependent lipophilicity (LogD) is −2.73 and the LogP is listed as −1.30.
As to `CN(C)[C@@H]1C(O)=C(C(N)=O)C(=O)[C@@]2(O)C(O)=C3C(=O)c4c(O)ccc(Cl)c4[C@@H](O)[C@H]3C[C@@H]12` [Demeclocycline], in data set [1], the LogD is recorded as −3.40 and the lipophilicity (LogP) was −1.07.
Take `COc1ccc(N(C)C)c2c1C(=O)C1=C(O)C3(O)C(=O)C(C(N)=O)=C(O)C(N(C)C)C3CC1C2.Cl` (stereo not drawn) [Methyl Ether Minocycline HCl, 4,7-Bis-dimethylamino-3,12,12a-trihydroxy-10-methoxy-1,11-dioxo-1,4,4a,5,5a,6,11,12a-octahydro-naphthacene-2-carboxylic acid amide hydrochloride]: the “% DID” value in the data set with C57BL/6J mice (setting [4]) is given as 40%. The same molecule displayed an Anti-microbial action in the data set with E. coli cell culture greater than 16 mg/mL.
De amino di acetyl minocycline [DeDiAc]: in the data set on C57BL/6J mice (Drinking in the Dark), the “reduction of ethanol consumption” value is given as “reduced ethanol consumption to a lesser degree”. Besides, the “ethanol consumption (in words)” value in the data set with C57BL/6J mice (Example 1, Drinking in the Dark, intraperitoneal and oral administration) was “significantly reduced ethanol consumption”. The “antibacterial action, zone of inhibition” value in the data set on E. coli [2] is “loss of antibiotic activity”. Further, in the data set with E. coli [3], the “antibacterial action, colony forming units” value is “loss of antibiotic activity”.
Take `CCCCOc1ccc(N(C)C)c2c1C(=O)C1=C(O)C3(O)C(=O)C(C(N)=O)=C(O)C(N(C)C)C3CC1C2.Cl` (stereo not drawn) [Butyl Ether Minocycline HCl, 10-Butoxy-4,7-bis-dimethylamino-3,12,12a-trihydroxy-1,11-dioxo-1,4,4a,5,5a,6,11,12a-octahydro-naphthacene-2-carboxylic acid amide hydrochloride]: the “alcohol consumption (in words)” value with C57BL/6J mice (Example 2, butyl ether minocycline 100 mg/kg, i.p., hydrochloride) is “significantly reduced alcohol consumption; also recorded: greatest reduction in alcohol consumption”. Besides, the “% DID” value in the data set with C57BL/6J mice (setting [4]) came out at 85%. The “antibiotic / antimicrobial activity (in words)” value with E. coli cell culture (Example 2, compared to minocycline) is “lost antibiotic activity”. Further, the Anti-microbial action entry in the data set with E. coli cell culture is “ND 64 mg/ml”.
As for `CCCOc1ccc(N(C)C)c2c1C(=O)C1=C(O)C3(O)C(=O)C(C(N)=O)=C(O)C(N(C)C)C3CC1C2.Cl` (stereo not drawn) [Propyl Ether Minocycline HCl, 4,7-Bis-dimethylamino-3,12,12a-trihydroxy-1,11-dioxo-10-propoxy-1,4,4a,5,5a,6,11,12a-octahydro-naphthacene-2-carboxylic acid amide hydrochloride], the “% DID” value in the data set on C57BL/6J mice (setting [4]) turned out to be 50%. Besides, in the data set on E. coli cell culture, the Anti-microbial action was greater than 4 mg/mL.
As to `C[C@H]1c2cccc(O)c2C(=O)C2=C(O)[C@]3(O)C(=O)C(C(N)=O)=C(O)[C@@H](N(C)C)[C@@H]3[C@@H](O)[C@@H]21` [Doxycycline], the “effectiveness against AUD traits” value in the data set with AUD traits is recorded as “effective”. Further, in data set [1], the LogD was −3.29 and the LogP is −0.54.
For `CN(C)[C@@H]1C(O)=C(C(N)=O)C(=O)[C@@]2(O)C(O)=C3C(=O)c4c(O)cccc4[C@@](C)(O)[C@H]3[C@H](O)[C@@H]12` [Oxytetracycline], in data set [1], the log distribution coefficient (LogD) is listed as −4.25 and the lipophilicity (LogP) is listed as −1.5.
As for `CN(C)c1ccc(O)c2c1C[C@H]1C[C@H]3[C@H](N(C)C)C(=O)C(C(N)=O)=C(O)[C@@]3(O)C(=O)C1=C2O` [Minocycline, reference compound], the “reduction of ethanol consumption” value with C57BL/6J mice (Drinking in the Dark) was “reduced ethanol consumption to a lesser degree”. For the same molecule, in the data set on AUD traits, the “effectiveness against AUD traits” value was “effective”.
Turning to `CCOc1ccc(N(C)C)c2c1C(=O)C1=C(O)C3(O)C(=O)C(C(N)=O)=C(O)C(N(C)C)C3CC1C2.Cl` (stereo not drawn) [Ethyl Ether Minocycline HCl, 4,7-Bis-dimethylamino-10-ethoxy-3,12,12a-trihydroxy-1,11-dioxo-1,4,4a,5,5a,6,11,12a-octahydro-naphthacene-2-carboxylic acid amide hydrochloride], the “% DID” value in the data set with C57BL/6J mice (setting [4]) is given as 50%. In the data set with E. coli cell culture, this molecule had an Anti-microbial action greater than 2 mg/mL.
